Experimental data published in US7879861B2, “Combi-molecules having EGFR and DNA targeting properties” (priority 2005, dated 2011).
Several values for one entry are separate records, joined by “and”; a condition that tells them apart may be missing. Equal values may be shown once. Entries after “also recorded” stand apart in the source; their conditions may differ. Read-outs that look alike come from different tables or passages of the source.

Legend:
[1] = Chemical stability of combi-molecules; format: physicochemical
Water solubility = format: physicochemical
MDA-MB-468 cells = assay: Reversibility of antiproliferative effect, SRB assay; format: cell-based, human
Method: (§1) In vitro growth inhibition assay: To study the effect of the compounds on growth factor stimulated-proliferation, cells were grown to 70% of confluence in 48-well plates. […] Cell growth was measured using the sulforhodamine B (SRB) assay (24). Briefly, following drug treatment, cells were fixed using 50 μl of cold trichloroacetic acid (50%) for 60 min at 4° C., washed five times with tap water, and stained for 30 min at room temperature with SRB (0.4%) and dissolved in acetic acid (0.5%). The plates were rinsed five times with 1% acetic acid and allowed to air dry. The resulting colored residue was dissolved in 200 μl of Tris base (10 mM), and the optical density read for each well at 450 nm using a Bio-Rad microplate reader (model 2550). […] Cell growth was measured using SRB assay as described previously.

MDA-MB-453 cells = assay: as above; format: cell-based, human
Method: as §1

NIH3T3HER14 cells = assay: Growth factor-stimulated proliferation, SRB assay; format: cell-based, mouse; settings: 72 h
Method: In vitro growth inhibition assay: To study the effect of the compounds on growth factor stimulated-proliferation, cells were grown to 70% of confluence in 48-well plates. They were subsequently washed twice with PBS, incubated in serum-free medium for 18 h and exposed to each drug+growth factors (EGF, TGFα, PDGF or serum) for 72 h. Cell growth was measured using the sulforhodamine B (SRB) assay (24). Briefly, following drug treatment, cells were fixed using 50 μl of cold trichloroacetic acid (50%) for 60 min at 4° C., washed five times with tap water, and stained for 30 min at room temperature with SRB (0.4%) and dissolved in acetic acid (0.5%). The plates were rinsed five times with 1% acetic acid and allowed to air dry. The resulting colored residue was dissolved in 200 μl of Tris base (10 mM), and the optical density read for each well at 450 nm using a Bio-Rad microplate reader (model 2550). […] Cell growth was measured using SRB assay as described previously.

erbB2 = molecular target: T1, erbB2 (Homo sapiens, UniProt P04626); assay: Heregulin-induced autophosphorylation in MDA-MB-453 cells (Western blot); format: cell-based; settings: 2 h preincubation, heregulin 10 min
T1 construct: heregulin-induced autophosphorylation in MDA-MB-453 cells; endogenous in cells; host or cells: MDA-MB-453 (ATCC)
Method: (§2) Autophosphorylation assay: Inhibition of receptor autophosphorylation in viable cells was determined by anti-phosphotyrosine Western blots as previously described (19). […] Equal amounts of cell lysates were analyzed by Western blot using anti-phosphotyrosine antibodies. Membranes were stripped of anti-phosphotyrosine and reprobed with anti-EGFR or anti-erbB2 antibodies (NeoMarkers, Fremont, Calif.). To study whether an inhibition is reversible or not, duplicate sets of cells were treated with 2 μM of designated compound for 2 h. One set of cells was then stimulated with EGF. The other set of cells was washed free of the compound with warmed serum-free media, incubated for 2 h, washed again, incubated for another 2 h, and incubated for a further 4 h after a subsequent wash. This set of cells was then stimulated with EGF. Western blot was performed as previously described. […] The membrane was incubated with anti-phosphorylated MAPK (Erk1,2) or anti-Erk 1,2 antibodies (Cell Signaling Technology Inc., Beverly, Mass.).

MAPK (Erk1, 2) = assay: Heregulin-stimulated MAPK phosphorylation in MDA-MB-453 cells (Western blot); format: cell-based, human
Method: as §2

[2] = tested on: human breast carcinoma MDA-MB-468; assay: In vivo efficacy, MDA-MB-468 implanted s.c.; design: species or system SCID mice
Method: In vivo studies: SCID mice were maintained as per McGill animal safety protocols. In a preliminary model, SCID mice housed in filtered cages were implanted subcutaneously (s.c.) with the human breast carcinoma MDA-MB-468 and treatment began when the tumors were palpable (8 mice/group). […] The tumor burdens were measured with a caliper and mice were weighed twice weekly. The study was later repeated with the MDA-MB-468 cells implanted in the mammary fat pad, a model that better mimics human breast carcinoma.

DNA of MDA-MB-468 cells = assay: Alkaline comet assay for DNA damage; format: cell-based, human; settings: 2 h drug exposure
Method: Alkaline Comet Assay for quantization of DNA damage: The alkaline comet assay was performed as described in previously published procedures (19, 20). The cells were exposed to drugs for 2 h, harvested with trypsin-EDTA and re-suspended in PBS. Cell suspensions were diluted to approximately 10^6 cells, and mixed with agarose (1%) in PBS at 37° C. in a 1:10 dilution. The gels were cast on Gelbond strips (Mandel Scientific, Canada) using gel casting chambers and then immediately placed into a lysis buffer [2.5 M NaCl, 0.1 M tetra-sodium EDTA, 10 mM Tris-base and 1% (v/v) Triton X-100, pH 10.0]. After being kept on ice for 30 min, the gels were gently rinsed with distilled water and immersed in a second lysis buffer (2.5 M NaCl, 0.1 M tetrasodium EDTA, 10 mM Tris-base) containing 1 mg/ml proteinase K for 60 min at 37° C. Thereafter, the gels were rinsed with distilled water, incubated in alkaline electrophoresis buffer for 30 min at 37° C., and electrophoresed at 19 V for 20 min. […] Comets were visualized at 330× magnification and DNA damage was quantitated using the Tail Moment parameter (i.e., the distance between the barycenter of the head and the tail of the comet multiplied by the percentage of DNA within the tail of the comet). A minimum of 50 cell/comets were analyzed for each sample, using ALKOMET version 3.1 image analysis software.

EGFR = EGFR (Homo sapiens, UniProt P00533); assay: Reversibility of EGFR autophosphorylation inhibition in MDA-MB-468 cells (washout, 8 h); format: cell-based; design: EGF-induced EGFR autophosphorylation in MDA-MB-468 cells; endogenous in cells; host or cells: MDA-MB-468 (ATCC)
Sequence of EGFR (P00533 25-1210): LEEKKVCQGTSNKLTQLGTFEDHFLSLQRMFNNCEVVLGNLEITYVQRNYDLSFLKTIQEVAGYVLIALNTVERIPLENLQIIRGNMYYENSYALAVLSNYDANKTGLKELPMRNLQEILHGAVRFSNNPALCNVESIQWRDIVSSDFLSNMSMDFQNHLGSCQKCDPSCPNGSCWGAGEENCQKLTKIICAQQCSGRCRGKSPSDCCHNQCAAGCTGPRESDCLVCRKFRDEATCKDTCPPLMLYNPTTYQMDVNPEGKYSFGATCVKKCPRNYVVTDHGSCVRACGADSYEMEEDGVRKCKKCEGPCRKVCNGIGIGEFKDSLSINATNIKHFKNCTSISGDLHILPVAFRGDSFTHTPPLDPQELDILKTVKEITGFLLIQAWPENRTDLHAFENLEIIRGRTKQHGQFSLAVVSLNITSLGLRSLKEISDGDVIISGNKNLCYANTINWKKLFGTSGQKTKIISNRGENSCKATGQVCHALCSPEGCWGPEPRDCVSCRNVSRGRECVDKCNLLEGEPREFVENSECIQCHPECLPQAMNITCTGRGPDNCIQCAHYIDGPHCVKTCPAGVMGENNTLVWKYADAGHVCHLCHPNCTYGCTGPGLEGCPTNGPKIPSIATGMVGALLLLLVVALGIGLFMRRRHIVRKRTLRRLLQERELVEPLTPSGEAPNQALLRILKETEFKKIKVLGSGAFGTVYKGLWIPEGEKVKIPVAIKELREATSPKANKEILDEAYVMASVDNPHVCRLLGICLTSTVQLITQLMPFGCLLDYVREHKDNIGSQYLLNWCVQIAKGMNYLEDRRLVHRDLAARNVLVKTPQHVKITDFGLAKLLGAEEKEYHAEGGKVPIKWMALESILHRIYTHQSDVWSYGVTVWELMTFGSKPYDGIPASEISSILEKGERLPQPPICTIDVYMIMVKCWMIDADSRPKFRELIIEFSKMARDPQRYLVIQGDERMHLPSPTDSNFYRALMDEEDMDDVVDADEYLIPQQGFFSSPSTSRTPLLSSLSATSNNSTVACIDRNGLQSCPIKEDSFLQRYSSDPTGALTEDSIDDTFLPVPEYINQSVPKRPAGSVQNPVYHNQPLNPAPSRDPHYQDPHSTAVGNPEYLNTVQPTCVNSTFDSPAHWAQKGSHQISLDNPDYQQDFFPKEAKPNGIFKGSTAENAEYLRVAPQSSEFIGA
Method: To test this hypothesis, the reversibility assay described by Fry et al. (13) and Smaill et al. (14) was used, according to which the cells are treated with inhibitors (2 μM) for 2 h and then washed free of drug. After 8 h, EGF was added; after a 10-min incubation the cells were lysed, and the degree of EGFR autophosphorylation measured.

T1 sequence (P04626 23-1255): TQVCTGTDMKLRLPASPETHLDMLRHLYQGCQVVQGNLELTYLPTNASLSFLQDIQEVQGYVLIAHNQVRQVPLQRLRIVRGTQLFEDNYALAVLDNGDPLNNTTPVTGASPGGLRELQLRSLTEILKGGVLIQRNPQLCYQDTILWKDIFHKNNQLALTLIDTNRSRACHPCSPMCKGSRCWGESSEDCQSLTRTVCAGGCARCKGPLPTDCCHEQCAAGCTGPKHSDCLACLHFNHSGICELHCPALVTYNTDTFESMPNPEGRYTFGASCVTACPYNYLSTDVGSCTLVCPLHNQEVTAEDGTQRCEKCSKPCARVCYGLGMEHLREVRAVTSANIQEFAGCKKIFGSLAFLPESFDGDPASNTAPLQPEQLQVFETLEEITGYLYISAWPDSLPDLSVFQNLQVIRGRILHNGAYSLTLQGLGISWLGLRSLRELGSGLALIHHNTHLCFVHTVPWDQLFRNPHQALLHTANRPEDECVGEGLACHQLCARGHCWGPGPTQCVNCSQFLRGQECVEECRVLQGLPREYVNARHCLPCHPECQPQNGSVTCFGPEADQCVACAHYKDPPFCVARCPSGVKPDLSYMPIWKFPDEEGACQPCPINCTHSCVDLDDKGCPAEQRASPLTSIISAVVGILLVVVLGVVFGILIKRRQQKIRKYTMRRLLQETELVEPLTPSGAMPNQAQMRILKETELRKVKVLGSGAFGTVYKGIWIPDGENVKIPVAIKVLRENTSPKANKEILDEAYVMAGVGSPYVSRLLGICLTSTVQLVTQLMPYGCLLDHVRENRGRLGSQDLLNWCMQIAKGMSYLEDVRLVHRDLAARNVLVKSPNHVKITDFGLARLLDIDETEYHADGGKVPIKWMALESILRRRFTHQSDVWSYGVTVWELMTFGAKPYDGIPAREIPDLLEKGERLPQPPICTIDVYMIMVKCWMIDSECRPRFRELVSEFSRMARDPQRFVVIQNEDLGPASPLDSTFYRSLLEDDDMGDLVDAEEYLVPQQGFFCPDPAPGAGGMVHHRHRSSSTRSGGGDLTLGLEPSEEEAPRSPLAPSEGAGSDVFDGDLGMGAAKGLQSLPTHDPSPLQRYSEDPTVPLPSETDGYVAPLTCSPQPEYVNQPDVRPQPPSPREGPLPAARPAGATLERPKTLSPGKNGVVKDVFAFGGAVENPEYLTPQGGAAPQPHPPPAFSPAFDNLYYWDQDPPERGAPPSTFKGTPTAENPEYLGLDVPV

With `ClCCNc1ccc2ncnc(Nc3cccc(Br)c3)c2c1` [ZR2002] as the molecule, how does the “chemical stability (in words)” value [1] read?
Its value is “stable compound that does not self-alkylate”.

And the “water solubility (in words)” value (Water solubility)?
Its value is “reduced water solubility”.

What about the IC50 (MDA-MB-468 cells; Homo sapiens, MDA-MB-468, 120 h, read-out: IC50, growth inhibition, 120 h continuous exposure, MDA-MB-468, SRB) of the same molecule?
The IC50 was 360 nM.

And the IC50 (MDA-MB-468 cells; Homo sapiens, MDA-MB-468, read-out: IC50, growth inhibition, 2 h exposure followed by 120 h recovery, MDA-MB-468, SRB)?
The IC50 was 7400 nM.

And the IC50 (MDA-MB-468 cells; read-out: IC50, growth inhibition, 2 h exposure followed by 120 h recovery, MDA-MB-468, SRB)?
The IC50 was 5160 nM.

And the IC50 (MDA-MB-468 cells; read-out: IC50, growth inhibition, 120 h continuous exposure, MDA-MB-468, SRB)?
The IC50 was 234 nM.

What about the IC50 (MDA-MB-453 cells; Homo sapiens, MDA-MB-453, 120 h, read-out: IC50, growth inhibition, 120 h continuous exposure, MDA-MB-453, SRB) of the same molecule?
The IC50 was 430 nM.

And the IC50 (MDA-MB-453 cells; Homo sapiens, MDA-MB-453, read-out: IC50, growth inhibition, 2 h exposure followed by 120 h recovery, MDA-MB-453, SRB)?
The IC50 was 4170 nM.

And the IC50 (MDA-MB-453 cells; read-out: IC50, growth inhibition, 2 h exposure followed by 120 h recovery, MDA-MB-453, SRB)?
The IC50 was 4170 nM.

And the IC50 (MDA-MB-453 cells; read-out: IC50, growth inhibition, 120 h continuous exposure, MDA-MB-453, SRB)?
Its IC50 is 426 nM.

And the “EGF or TGFα-induced proliferation” value (NIH3T3HER14 cells)?
The value was “selectively blocking”.

And the inhibition at 1 µM (NIH3T3HER14 cells; Mus musculus, at 1 μM, read-out: inhibition of PDGF-stimulated growth)?
The inhibition at 1 µM was 100%.

And the inhibition at 10 µM (NIH3T3HER14 cells; Mus musculus, at concentrations >10 μM, read-out: inhibition of serum-stimulated growth)?
The inhibition at 10 µM was 100%.

What about the inhibition at 0.1 µM (NIH3T3HER14 cells; Mus musculus, at concentrations as low at 0.1 μM, read-out: inhibition of EGF-stimulated growth) of the same molecule?
Its inhibition at 0.1 µM is 100%.

What about the IC50 (erbB2) of the same molecule?
Its IC50 is ~230 nM and 236 nM.

What about the “heregulin-stimulated MAPK phosphorylation” value (MAPK (Erk1, 2)) of the same molecule?
The value was “blocked heregulin-stimulated MAPK phosphorylation”.

And the “in vivo antitumor activity” value ([2]; 50 mg/kg i.p. every 3-4 days, one month, s.c. tumors, p<0.001 vs vehicle)?
The value was “modest; also recorded: moderate antiproliferative activity”.

And the tolerated dose ([2]; SCID mice, i.p.)?
The tolerated dose was 50 mg/kg.

What about the “DNA damage (tail moment), in words” value (DNA of MDA-MB-468 cells) of the same molecule?
Its value is “damages DNA in a dose dependent manner”.

And the “concentration inducing significant DNA damage” value (DNA of MDA-MB-468 cells)?
The value was 10 µM.

What about the “mode of EGFR inhibition (reversible / irreversible)” value (EGFR) of the same molecule?
The value was “irreversible inhibitor of EGFR”.

What about the “EGF-dependent EGFR autophosphorylation immediately after drug exposure” value (EGFR; 2 μM, 2 h) of the same molecule?
Its value is “completely suppressed”.
